The record followed here is ChEMBL document CHEMBL1201862, “PubChem BioAssay data set” (2004).

Holding throughout (assay): NCI-60 cell line screen, 48 h
The subject of assay [1] is RPMI-8226.
Assay [2] relates to HL-60.
Assay [3] relates to UO-31.
Assay [4] has as its system KM-20L2.
Assay [5] deals with K562.
For assay [6], the system named is SK-MEL-28.
Assay [7] deals with LXFL 529.
For assay [8], the system named is SW-620.
Assay [9] has as its system LOX IMVI.
Assay [10] deals with HOP-92.
The test system of assay [11] is TK-10.
The test system of assay [12] is UACC-62.
In assay [13] the test system is OVCAR-5.
In assay [14] the test system is OVCAR-4.
Assay [15] relates to COLO 205.
For assay [16], the system named is NCI-H460.
The subject of assay [17] is HCC 2998.

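Compound exposure: 48 hours, 5 concentrations, 96-well plates. GI50 is the concentration that inhibits growth by half.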 Activity calls are given as the source filed them. Cut-off read from the data, not from the text of the source: active = GI50 up to about 1.1 µM and inactive = higher.

Consider `COC(=O)C(=O)C(C#N)c1ccc(Cl)c(Cl)c1` (configuration not stated), for which the GI50 in assay [1], in [2], in assay [3], in [4], in assay [5] and in assay [6] was > 100 µM (inactive) throughout. For the same compound, the GI50 in assay [7], in assay [8], in assay [9], in assay [10], in assay [11] and in assay [12] was > 100 µM (inactive) each time.

As to `CCOC(=O)c1c2cccccc2n2c(=O)cc(C)nc12`, the GI50 in assay [13], in assay [14], in assay [1], in assay [2], in assay [3] and in assay [15] was > 100 µM (inactive) in each case. The GI50 in assay [4], in [5], in assay [6], in assay [7], in assay [8] and in assay [9] was > 100 µM (inactive) each time. The GI50 in assay [11] was > 100 µM (inactive); in assay [16] it was > 100 µM (inactive); in assay [17], > 100 µM (inactive); in assay [12] it was 71.6 µM (inactive).

In the case of `Cc1ccc(NC(=O)c2nc(S)nc(N)c2-c2ccccc2C)cc1C`, the GI50 in assay [13] is > 100 µM (inactive); in assay [14], > 10 µM (inactive); in assay [1], > 100 µM (inactive); in assay [3], > 100 µM (inactive); in assay [15], > 100 µM (inactive); in [4], > 100 µM (inactive). Also, the GI50 in assay [5], in assay [6], in assay [7], in [8], in assay [9] and in assay [10] was > 100 µM (inactive) throughout. The GI50 in [11], in [16] and in assay [12] was > 100 µM (inactive) each time.

In the case of `CC(C)(C)c1cc(CCC(=O)Nc2ccc(Cl)cc2Cl)nc(N)n1`, the GI50 in assay [13], in assay [14], in [2], in [3], in [15] and in assay [4] was > 100 µM (inactive) in each case. Further, the GI50 in assay [5] is > 100 µM (inactive); in assay [6], > 100 µM (inactive); in assay [7], > 100 µM (inactive); in assay [8], > 100 µM (inactive); in assay [9] it was > 100 µM (inactive); in assay [10], 91.6 µM (inactive). The GI50 in [16], in [17] and in [12] was > 100 µM (inactive) in each case.

Take `CC(O)(c1ccc(OCCC[N+](C)(C)C)cc1)C(C)(O)c1ccc(OCCC[N+](C)(C)C)cc1` (configuration not stated): the GI50 in [13], in [14], in assay [2], in assay [3], in assay [15] and in assay [4] was > 100 µM (inactive) each time. Besides, the GI50 in [5], in [6], in assay [7], in assay [8], in assay [9] and in [10] was > 100 µM (inactive) throughout. The GI50 in assay [16], in [17] and in [12] was > 100 µM (inactive) in each case.

For `COc1cccc2c1C(=O)c1c(O)c3c(c(O)c1C2=O)C[C@@](O)(C(=O)CO)CC3OC1CC(N(C)CCOCC(OC(C)=O)OC(C)=O)C(O)C(C)O1` (some centres not stated), the GI50 in assay [13], in assay [14], in assay [1], in assay [2], in assay [3] and in assay [4] was > 0.01 µM (active) in each case. In addition, the GI50 in assay [5], in [6], in [7], in assay [8], in assay [9] and in assay [10] was > 0.01 µM (active) each time. Also, the GI50 in [11], in assay [16], in assay [17] and in [12] was > 0.01 µM (active) each time.

For `CC1CCC23COC(=O)C2C(O)CCC3C1(C)CC(O)c1ccoc1` (configuration not stated), the GI50 in assay [13], in [14], in [3], in assay [15], in assay [4] and in [5] was > 100 µM (inactive) throughout. Also, the GI50 in assay [6], in assay [7], in [8], in [9], in assay [10] and in [11] was > 100 µM (inactive) each time. In addition, the GI50 in [16], in assay [17] and in assay [12] was > 100 µM (inactive) throughout.

With `Nc1nc(N)c(N=O)c(Nc2ccc(I)cc2)n1`, the GI50 is 19.2 µM (inactive) in assay [13]; 20.9 µM (inactive) in assay [1]; 6.53 µM (inactive) in assay [2]; 18 µM (inactive) in assay [3]; 18.6 µM (inactive) in [15]; 23.2 µM (inactive) in assay [4]. Besides, the GI50 was 14.1 µM (inactive) in assay [5]; 14 µM (inactive) in assay [6]; 9.93 µM (inactive) in assay [7]; 30 µM (inactive) in [8]; 9.12 µM (inactive) in assay [9]; 31 µM (inactive) in assay [11]. The results for the GI50 in assay [16], in assay [17] and in assay [12] were 27.5 µM (inactive), 27.5 µM (inactive) and 7.78 µM (inactive), respectively.

As to `CC1CCCC(C(=O)/C(=C/c2cccc(Cl)c2)C(=O)C(=O)O)C1` (configuration not stated), the GI50 in assay [13] is > 100 µM (inactive); in assay [14], 37.8 µM (inactive); in assay [1] it was 14.7 µM (inactive); in [2] it was 20 µM (inactive); in [3], 61.2 µM (inactive); in assay [15] it was 37.3 µM (inactive). Further, the GI50 in [4] is 25.9 µM (inactive); in assay [5], 19.5 µM (inactive); in assay [6], 37 µM (inactive); in assay [7], 19.7 µM (inactive); in assay [8], 14.5 µM (inactive); in [10] it was 39 µM (inactive). The GI50 in [11] is > 100 µM (inactive); in [16], 33 µM (inactive); in [17], 12.8 µM (inactive); in assay [12] it was 36.9 µM (inactive).

Take `COC(=O)C1=C(CO)C2C=CC1C2` (configuration not stated): the GI50 in assay [13], in assay [14], in [1], in assay [2], in [3] and in [15] was > 100 µM (inactive) throughout. Besides, the GI50 in assay [4], in [5], in [7], in assay [8], in assay [9] and in assay [11] was > 100 µM (inactive) throughout. Besides, the GI50 in assay [16], in assay [17] and in assay [12] was > 100 µM (inactive) each time.

As to `NC(CCSCC(F)(F)F)C(=O)O` (configuration not stated), the GI50 in [13], in assay [14], in assay [2], in assay [3], in [15] and in assay [4] was > 100 µM (inactive) each time. Moreover, the GI50 in assay [5], in assay [6], in [7], in assay [8], in [9] and in assay [10] was > 100 µM (inactive) throughout. In addition, the GI50 in [11], in [16], in assay [17] and in [12] was > 100 µM (inactive) each time.

As to `OC1(c2ccccc2)OC(C#Cc2ccccc2)(c2ccccc2)c2ccccc21` (configuration not stated), the GI50 in assay [13] is 2.79 µM (inactive); in assay [14], 2.82 µM (inactive); in assay [1], 1.94 µM (inactive); in assay [2], 2.58 µM (inactive); in assay [3], 1.71 µM (inactive); in assay [15], 2.31 µM (inactive). The GI50 is 3.33 µM (inactive) in assay [4]; 3.55 µM (inactive) in assay [5]; 6.22 µM (inactive) in assay [7]; 4.12 µM (inactive) in assay [8]; 2.91 µM (inactive) in assay [9]; 4 µM (inactive) in assay [10]. The results for the GI50 in assay [11], in assay [16] and in assay [12] were 13.3 µM (inactive), 4.47 µM (inactive) and 1.94 µM (inactive), respectively.

Turning to `CCCCCCCCCc1cc(=O)c2ccc(OCc3ccccc3)cc2o1`, the GI50 in assay [13] is > 100 µM (inactive); in assay [14], 83.2 µM (inactive); in assay [2] it was 14.5 µM (inactive); in assay [3] it was > 100 µM (inactive); in [15] it was > 100 µM (inactive); in assay [4], > 100 µM (inactive). The GI50 in [5] is > 100 µM (inactive); in assay [6] it was > 100 µM (inactive); in assay [7], 73.8 µM (inactive); in assay [8] it was > 100 µM (inactive); in [9], > 100 µM (inactive); in assay [10], > 100 µM (inactive). For the same compound, the GI50 in assay [11] was 65.5 µM (inactive); in assay [16], 64.4 µM (inactive); in [17] it was > 100 µM (inactive); in [12], > 100 µM (inactive).
